Paper PMC8794255, “Small molecule inhibitor of Igf2bp1 represses Kras and a pro-oncogenic phenotype in cancer cells” (RNA Biology, 2021)
Several values for one entry are separate records, joined by “and”; a condition that tells them apart may be missing. Identical values can stand only once.

Molecular target: T1, Igf2bp1 (Homo sapiens, UniProt Q9NZI8)
T1 construct: Recombinant full-length Igf2bp1 protein was labelled with RED-tris-NTA dye; made in house
Test: Fluorescence polarization (FP) assay of Igf2bp1 binding to fluorescent Kras 6 RNA
Settings: FP dose response; read-out: IC50, inhibition of Igf2bp1 binding to Kras 6 RNA
Method: For the small-molecule screen, compounds were obtained from the collection maintained at the Grand Israel National Center for Personalized Medicine, consisting of molecules purchased from commercial vendors. Labelled RNA (10 nM) was incubated with recombinant Igf2bp1 protein (400 nM) in FAM-RNA buffer (10 mM Tris pH 8.0, 75 mM KCl, 0.5 mM EDTA, 1 mM DTT, 0.0188 U/μL RNAsin, 0.0005 μg/mL heparin, 0.0001 μg/μL tRNA, 0.01% Triton X-100, 3 mM MgCl2, 0.05% IGEPAL) at room temperature for 15 min. 7 μL of this reaction mix was aliquoted with GNF WDII (USA) into wells of 1536 well plates, with a final concentration of 20 μM compound or DMSO. The plates were spun down and read in a BMG Pherastar FS (Germany) plate reader, in FP mode with a 485/520/520 polarization filter, calibrated to 35 mP for free fluorescein with similar total intensity as experimental samples. […]
To determine the quality of our screening assay, the Z’ factor for each plate was calculated with a Z’ factor greater than 0.5 indicating a robust assay suitable for high throughput screening. Compounds that altered the overall fluorescence intensity compared to controls were considered auto florescence and excluded from further analysis. […] Any small molecule that causes a change of more than three standard deviations from the mean is determined appropriate for further investigation.

T1 sequence (Q9NZI8 whole entry): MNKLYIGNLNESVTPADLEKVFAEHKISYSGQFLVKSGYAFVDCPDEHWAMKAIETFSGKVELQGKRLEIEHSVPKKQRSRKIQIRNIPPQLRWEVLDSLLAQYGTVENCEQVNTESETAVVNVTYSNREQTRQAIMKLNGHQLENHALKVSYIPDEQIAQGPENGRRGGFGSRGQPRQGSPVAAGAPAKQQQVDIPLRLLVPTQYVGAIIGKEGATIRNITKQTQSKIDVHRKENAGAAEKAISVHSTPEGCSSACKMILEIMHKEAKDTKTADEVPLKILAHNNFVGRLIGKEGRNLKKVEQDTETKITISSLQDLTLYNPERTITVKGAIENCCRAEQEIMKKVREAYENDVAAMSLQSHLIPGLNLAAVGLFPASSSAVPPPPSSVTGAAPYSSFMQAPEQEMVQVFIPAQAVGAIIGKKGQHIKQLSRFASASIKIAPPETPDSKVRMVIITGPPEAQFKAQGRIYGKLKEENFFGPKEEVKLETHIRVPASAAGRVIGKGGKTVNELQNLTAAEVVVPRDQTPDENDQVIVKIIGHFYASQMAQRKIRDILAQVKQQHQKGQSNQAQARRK

- IC50: ~30 µM and 30.4 µM
Structure (SMILES): O=C(c1ccc(Cn2cnnn2)cc1)N1CCCC(Nc2ccc3c(c2)OCO3)C1 (stereo not shown) [compound 7773]
